Structures can show the parent of a compound that is named as a salt.
Test system: HCT116
Conditions: 72 h
How it was run: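 HCT116 cells were seeded at 250 per well in 1536-well plates with 5 h allowed for attachment. CellTiter-Glo luminescence was normalized against vehicle (0%) and positive control (-100%) before pattern correction. The IC50 and maximal efficacy figures derive from four-parameter Hill fits.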

SMILES	IC50 cell viability (ICRF193 0 nM)	IC50 cell viability (ICRF193 200 nM)
CCN(CC)CC(=O)OCC(=O)[C@@]1(O)CC[C@H]2[C@@H]3CCC4=CC(=O)CC[C@]4(C)[C@H]3[C@@H](O)C[C@@]21C [Hydrocortamate]	> 45.8 µM	> 45.8 µM
CCCC(=O)O[C@]1(C(=O)CO)CC[C@H]2[C@@H]3CCC4=CC(=O)CC[C@]4(C)[C@H]3[C@@H](O)C[C@@]21C [Hydrocortisone 17-butyrate]	> 45.8 µM	> 45.8 µM
C[C@]12CCC(=O)C=C1CC[C@@H]1[C@@H]2[C@@H](O)C[C@@]2(C)[C@H]1CC[C@]2(O)C(=O)COC(=O)CCC(=O)O [Hydrocortisone 21-hemisuccinate sodium salt]	> 45.8 µM	> 45.8 µM
C[C@]12CCC(=O)C=C1CC[C@@H]1[C@@H]2[C@@H](O)C[C@@]2(C)[C@H]1CC[C@]2(O)C(=O)COP(=O)(O)O [Hydrocortisone Sodium Phosphate]	> 45.8 µM	> 45.8 µM
CC(=O)OCC(=O)[C@@]1(O)CC[C@H]2[C@@H]3CCC4=CC(=O)CC[C@]4(C)[C@H]3[C@@H](O)C[C@@]21C [Hydrocortisone acetate]	> 45.8 µM	> 45.8 µM
CCCC(=O)O[C@]1(C(=O)COC(=O)CC)CC[C@H]2[C@@H]3CCC4=CC(=O)CC[C@]4(C)[C@H]3[C@@H](O)C[C@@]21C [Hydrocortisone buteprate]	> 45.8 µM	> 45.8 µM
CCCCC(=O)O[C@]1(C(=O)CO)CC[C@H]2[C@@H]3CCC4=CC(=O)CC[C@]4(C)[C@H]3[C@@H](O)C[C@@]21C [Hydrocortisone valerate]	> 45.8 µM	> 45.8 µM
C[C@]12CCC(=O)C=C1CC[C@@H]1[C@@H]2[C@@H](O)C[C@@]2(C)[C@H]1CC[C@]2(O)C(=O)CO [Hydrocortisone]	> 45.8 µM	> 45.8 µM
COc1c2c(cc3c1OCO3)CCN(C)C2 [Hydrocotarnine hydrobromide]	> 45.8 µM	> 45.8 µM
NS(=O)(=O)c1cc2c(cc1C(F)(F)F)NCNS2(=O)=O [Hydroflumethiazide]	> 45.8 µM	> 45.8 µM
CC[C@H]1CN2CC[C@H]1C[C@@H]2[C@@H](O)c1ccnc2ccc(OC)cc12 [Hydroquinidine HCl]	> 45.8 µM	> 45.8 µM
Oc1ccc(O)cc1 [Hydroquinone]	> 45.8 µM	> 45.8 µM
CCN(CCO)CCCC(C)Nc1ccnc2cc(Cl)ccc12 (stereo not drawn) [Hydroxychloroquine sulfate]	> 45.8 µM	> 45.8 µM
CC(CC=O)CCCC(C)(C)O (stereo not drawn) [Hydroxycitronellal]	> 45.8 µM	> 45.8 µM
N=C(N)c1ccc(/C=C/c2ccc(C(=N)N)cc2O)cc1 [Hydroxystilbamidine bis(methanesulfonate)]	> 45.8 µM	> 45.8 µM
NC(=O)NO [Hydroxyurea]	> 45.8 µM	> 45.8 µM
OCCOCCN1CCN(C(c2ccccc2)c2ccc(Cl)cc2)CC1 (stereo not drawn) [Hydroxyzine]	> 45.8 µM	> 45.8 µM
CNC1CC(N)C(O)C(OC2OC(CO)C(O)C3OC4(OC(C(N)CO)C(O)C(O)C4O)OC23)C1O (stereo not drawn) [Hygromycin B]	> 45.8 µM	> 45.8 µM
N=C1NC(=O)N2CC12 (stereo not drawn) [IMEXON]	> 45.8 µM	> 45.8 µM
O=C(O[C@H]1[C@H](OC(=O)c2cccnc2)[C@@H](OC(=O)c2cccnc2)[C@H](OC(=O)c2cccnc2)[C@@H](OC(=O)c2cccnc2)[C@H]1OC(=O)c1cccnc1)c1cccnc1 [INOSITOL NIACINATE]	> 45.8 µM	> 45.8 µM

SMILES	IC50 cell viability (ICRF193 0 nM)	IC50 cell viability (ICRF193 200 nM)
CC[C@H]1[C@@H](O)[C@@H]2[C@H](CC[C@]3(C)[C@@H]([C@H](C)CCC(=O)O)CC[C@@H]23)[C@@]2(C)CC[C@@H](O)C[C@@H]12 [INT-747 (Obeticholic acid)]	> 45.8 µM	> 45.8 µM
CN(CC(O)CO)C(=O)c1c(I)c(NC(=O)C(CO)CO)c(I)c(C(=O)N(C)CC(O)CO)c1I (stereo not drawn) [IOBITRIDOL]	> 45.8 µM	> 45.8 µM
CC(C)CCCC(C)NC(C)C (stereo not drawn) [IPROHEPTINE]	> 45.8 µM	> 45.8 µM
CNCC(=O)OCc1cccnc1N(C)C(=O)OC(C)[n+]1cnn(C[C@](O)(c2cc(F)ccc2F)[C@@H](C)c2nc(-c3ccc(C#N)cc3)cs2)c1 (stereo partly drawn) [ISAVUCONAZONIUM SULFATE]	> 45.8 µM	> 45.8 µM
CCC(NC(C)C)C(O)c1ccc(O)c(O)c1 (stereo not drawn) [ISOETHARINE MESYLATE]	> 45.8 µM	> 45.8 µM
Cc1c(F)cc2c(=O)c(C(=O)O)cn3c2c1CCC3C (stereo not drawn) [Ibafloxacine]	> 45.8 µM	> 45.8 µM
CCCCCN(C)CCC(O)(P(=O)(O)O)P(=O)(O)O [Ibandronate sodium hydrate]	> 45.8 µM	> 45.8 µM
CC(C)C(=O)c1c(C(C)C)nn2ccccc12 [Ibudilast]	> 45.8 µM	> 45.8 µM
CC(C)Cc1ccc(CC(=O)O)cc1 [Ibufenac]	> 45.8 µM	> 45.8 µM
CC(C)Cc1ccc(C(C)C(=O)O)cc1 (stereo not drawn) [Ibuprofen lysine]	> 45.8 µM	> 45.8 µM
CC(C)Cc1ccc(C(C)C(=O)OCc2ccccn2)cc1 (stereo not drawn) [Ibuprofen piconol]	> 45.8 µM	> 45.8 µM
CCCCCCCN(CC)CCCC(O)c1ccc(NS(C)(=O)=O)cc1 (stereo not drawn) [Ibutilide fumarate]	> 45.8 µM	> 45.8 µM
N=C(N)NCCC[C@@H](N)C(=O)N[C@@H](CCCNC(=N)N)C(=O)N1CCC[C@H]1C(=O)N1C[C@H](O)C[C@H]1C(=O)NCC(=O)N[C@@H](Cc1cccs1)C(=O)N[C@@H](CO)C(=O)N1Cc2ccccc2C[C@@H]1C(=O)N1[C@H](C(=O)N[C@@H](CCCNC(=N)N)C(=O)O)C[C@@H]2CCCC[C@@H]21 [Icatibant]	> 45.8 µM	> 45.8 µM
O=c1[nH]c(=O)n([C@H]2C[C@H](O)[C@@H](CO)O2)cc1I [Idoxuridine]	> 45.8 µM	> 45.8 µM
CC(C(O)c1ccc(O)cc1)N1CCC(Cc2ccccc2)CC1 (stereo not drawn) [Ifenprodil]	> 45.8 µM	> 45.8 µM
O=P1(NCCCl)OCCCN1CCCl (stereo not drawn) [Ifomide]	> 45.8 µM	> 45.8 µM
CS(=O)(=O)Nc1cc2occ(NC=O)c(=O)c2cc1Oc1ccccc1 [Iguratimod]	> 45.8 µM	> 45.8 µM
CC#CCC(C)[C@H](O)/C=C/[C@@H]1[C@H]2C/C(=C/CCCC(=O)O)C[C@H]2C[C@H]1O (stereo partly drawn) [Iloprost]	> 45.8 µM	> 45.8 µM
Cc1ccc(NC(=O)c2ccc(CN3CCN(C)CC3)cc2)cc1Nc1nccc(-c2cccnc2)n1 [Imatinib]	> 45.8 µM	> 45.8 µM
O=[N+]([O-])/N=C1\NCCN1Cc1ccc(Cl)nc1 [Imidacloprid]	> 45.8 µM	> 45.8 µM

SMILES	IC50 cell viability (ICRF193 0 nM)	IC50 cell viability (ICRF193 200 nM)
Cc1nccn1CCC(C(N)=O)(c1ccccc1)c1ccccc1 [Imidafenacin]	> 45.8 µM	> 45.8 µM
CCOC(=O)[C@H](CCc1ccccc1)N[C@@H](C)C(=O)N1C(=O)N(C)C[C@H]1C(=O)O [Imidapril hydrochloride]	> 45.8 µM	> 45.8 µM
O=C(NCNC(=O)NC1C(=O)NC(=O)N1CO)NC1C(=O)NC(=O)N1CO (stereo not drawn) [Imidazolidinyl urea]	> 45.8 µM	> 45.8 µM
O=C(Nc1cccc(C2=NCCN2)c1)Nc1cccc(C2=NCCN2)c1 [Imidocarb dipropionate]	> 45.8 µM	> 45.8 µM
C[C@@H](O)[C@H]1C(=O)N2C(C(=O)O)=C(SCCNC=N)C[C@H]12 [Imipenem]	> 45.8 µM	> 45.8 µM
CC(C)Cn1cnc2c(N)nc3ccccc3c21 [Imiquimod]	> 45.8 µM	> 45.8 µM
CS(=O)(=O)OCCCNCCCOS(C)(=O)=O [Improsulfan tosylate]	> 45.8 µM	> 45.8 µM
CC1Cc2ccccc2N1NC(=O)c1ccc(Cl)c(S(N)(=O)=O)c1 (stereo not drawn) [Indapamide]	> 45.8 µM	> 45.8 µM
CC(C)NCCCC1(C(N)=O)c2ccccc2-c2ccccc21 [Indecainide]	> 45.8 µM	> 45.8 µM
O=C1/C(=C2\Nc3ccc(S(=O)(=O)O)cc3C2=O)Nc2ccc(S(=O)(=O)O)cc21 [Indigo carmine]	> 45.8 µM	> 45.8 µM
O=C1/C(=C2\Nc3ccccc3C2=O)Nc2ccccc21 [Indigo]	> 45.8 µM	> 45.8 µM
CC(C)(C)NC(=O)[C@@H]1CN(Cc2cccnc2)CCN1C[C@@H](O)C[C@@H](Cc1ccccc1)C(=O)N[C@H]1c2ccccc2C[C@H]1O [Indinavir sulfate]	> 45.8 µM	> 45.8 µM
c1ccc2[nH]ccc2c1 [Indole]	> 45.8 µM	> 45.8 µM
COc1ccc2c(c1)c(CC(=O)OC/C=C(\C)CC/C=C(\C)CCC=C(C)C)c(C)n2C(=O)c1ccc(Cl)cc1 [Indomethacin farnesil]	> 45.8 µM	> 45.8 µM
COc1ccc2c(c1)c(CC(=O)O)c(C)n2C(=O)c1ccc(Cl)cc1 [Indomethacin]	> 45.8 µM	> 45.8 µM
O=C(NC1CCN(CCc2c[nH]c3ccccc23)CC1)c1ccccc1 [Indoramin hydrochloride]	> 45.8 µM	> 45.8 µM
Nc1c(I)cc(I)c(C(=O)N(CCC(=O)O)c2ccccc2)c1I [Iobenzamic acid]	> 45.8 µM	> 45.8 µM
CNC(=O)c1c(I)c(NC(=O)CCCCC(=O)Nc2c(I)c(C(=O)O)c(I)c(C(=O)NC)c2I)c(I)c(C(=O)O)c1I [Iocarmic acid]	> 45.8 µM	> 45.8 µM
CC(=O)N(CC(C)C(=O)O)c1c(I)cc(I)c(N)c1I (stereo not drawn) [Iocetamic acid]	> 45.8 µM	> 45.8 µM
